Laboratory results from patent publication US9845322B2 (Hoffmann-La Roche Inc., priority 2016, dated 2017).
pIC50: −log10 of the molar value.

Test system: HBsAg secretion in HepG2.2.15 cells
Assay: HBsAg assay (chemiluminescence immunoassay of secreted HBsAg in culture supernatant)
Assay type: cell-based, HBV
Conditions: Hepatitis B virus, HepG2.2.15, HepG2.2.15 cells; concentration at which HBsAg secretion was reduced by 50% compared to the no drug control; read-out: IC50 (HBsAg assay)
Procedure, shortened: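 HepG2.2.15 cells (1.5×10^4/well, duplicate) treated with three-fold compound dilutions, 1% DMSO final, DMSO as no-drug control. Secreted HBsAg in supernatant quantified semi-quantitatively by chemiluminescence immunoassay; IC50 is concentration reducing HBsAg 50% versus no-drug control.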

Structure (SMILES) | pIC50
CC1c2cnc(-c3ncccn3)nc2CCN1c1cc(F)c(F)c(OCC2CN(C(=O)OC(C)(C)C)C2)c1 (centres unmarked) [Example 132, tert-butyl 3-[[2,3-difluoro-5-(5-methyl-2-pyrimidin-2-yl-7,8-dihydro-5H-pyrido[4,3-d]pyrimidin-6-yl)phenoxy]methyl]azetidine-1-carboxylate] | 7.52
CC1c2cnc(-c3ncccn3)nc2CCN1c1cc(F)cc(OC(F)(F)F)c1 (centres unmarked) [Example 133, 6-[3-fluoro-5-(trifluoromethoxy)phenyl]-5-methyl-2-pyrimidin-2-yl-7,8-dihydro-5H-pyrido[4,3-d]pyrimidine] | 5.75
Cc1cc(F)cc(N2CCc3nc(-c4ncccn4)ncc3C2C)c1 (centres unmarked) [Example 134, 6-(3-fluoro-5-methyl-phenyl)-5-methyl-2-pyrimidin-2-yl-7,8-dihydro-5H-pyrido[4,3-d]pyrimidine] | 7.32
COc1cc(F)cc(N2CCc3cc(-c4ncccn4)ncc3C2C)c1 (centres unmarked) [Example 135, 2-(3-fluoro-5-methoxy-phenyl)-1-methyl-6-pyrimidin-2-yl-3,4-dihydro-1H-2,7-naphthyridine] | 7.82
COc1cc(N2CCc3cc(-c4ncccn4)ncc3C2C)cc(F)c1-c1ccncc1 (centres unmarked) [Example 136, 2-[3-fluoro-5-methoxy-4-(4-pyridyl)phenyl]-1-methyl-6-pyrimidin-2-yl-3,4-dihydro-1H-2,7-naphthyridine] | 6.45
CC1c2cnc(-c3ncccn3)nc2CCN1c1cc(F)cc(C2CC2)c1 (centres unmarked) [Example 137, 6-(3-cyclopropyl-5-fluoro-phenyl)-5-methyl-2-pyrimidin-2-yl-7,8-dihydro-5H-pyrido[4,3-d]pyrimidine] | 6.91
COc1cc(Cl)cc(N2CCc3nc(-c4ncccn4)ncc3C2C)n1 (centres unmarked) [Example 140, 6-(4-chloro-6-methoxy-2-pyridyl)-5-methyl-2-pyrimidin-2-yl-7,8-dihydro-5H-pyrido[4,3-d]pyrimidine] | 7.62
COc1cc(N2CCc3nc(-c4ncccn4)ncc3C2C)cc(Cl)n1 (centres unmarked) [Example 141, 6-(2-chloro-6-methoxy-4-pyridyl)-5-methyl-2-pyrimidin-2-yl-7,8-dihydro-5H-pyrido[4,3-d]pyrimidine] | 6.95
COc1cc(F)cc(N2CCc3nc(-c4ncccn4)ncc3C2C)n1 (centres unmarked) [Example 142, 6-(4-fluoro-6-methoxy-2-pyridyl)-5-methyl-2-pyrimidin-2-yl-7,8-dihydro-5H-pyrido[4,3-d]pyrimidine] | 7.40
CC1c2cnc(-c3ncccn3)nc2CCN1c1cc(F)cc(OCC(F)F)c1 (centres unmarked) [Example 143, 6-[3-(2,2-difluoroethoxy)-5-fluoro-phenyl]-5-methyl-2-pyrimidin-2-yl-7,8-dihydro-5H-pyrido[4,3-d]pyrimidine] | 7.66
CC1c2cnc(-c3ncccn3)nc2CCN1c1cc(F)cc(OCC(F)(F)F)c1 (centres unmarked) [Example 144, 6-[3-fluoro-5-(2,2,2-trifluoroethoxy)phenyl]-5-methyl-2-pyrimidin-2-yl-7,8-dihydro-5H-pyrido[4,3-d]pyrimidine] | 7.32
CC1c2cnc(-c3ncccn3)nc2CCN1c1cc(F)cc(OCC2CC2)c1 (centres unmarked) [Example 145, 6-[3-(cyclopropylmethoxy)-5-fluoro-phenyl]-5-methyl-2-pyrimidin-2-yl-7,8-dihydro-5H-pyrido[4,3-d]pyrimidine] | 7.85
CC1c2cnc(-c3ncccn3)nc2CCN1c1cc(F)cc(OCC(F)F)n1 (centres unmarked) [Example 148, 6-[6-(2,2-difluoroethoxy)-4-fluoro-2-pyridyl]-5-methyl-2-pyrimidin-2-yl-7,8-dihydro-5H-pyrido[4,3-d]pyrimidine] | 7.77
CC1c2cnc(-c3ncccn3)nc2CCN1c1cc(F)nc(OCC(F)F)c1 (centres unmarked) [Example 150, 6-[2-(2,2-difluoroethoxy)-6-fluoro-4-pyridyl]-5-methyl-2-pyrimidin-2-yl-7,8-dihydro-5H-pyrido[4,3-d]pyrimidine] | 7.31
CC1c2cnc(-c3ncccn3)nc2CCN1c1cc(OCC2CCOCC2)cc(F)n1 (centres unmarked) [Example 151, 6-[6-fluoro-4-(tetrahydropyran-4-ylmethoxy)-2-pyridyl]-5-methyl-2-pyrimidin-2-yl-7,8-dihydro-5H-pyrido[4,3-d]pyrimidine] | 7.92
CC1c2cnc(-c3ncccn3)nc2CCN1c1cc(OCC2CC2)cc(F)n1 (centres unmarked) [Example 152, 6-[4-(cyclopropylmethoxy)-6-fluoro-2-pyridyl]-5-methyl-2-pyrimidin-2-yl-7,8-dihydro-5H-pyrido[4,3-d]pyrimidine] | 7.96
COc1cc(F)nc(N2CCc3nc(-c4ccccn4)ncc3C2C)c1 (centres unmarked) [Example 153, 6-(6-fluoro-4-methoxy-2-pyridyl)-5-methyl-2-(2-pyridyl)-7,8-dihydro-5H-pyrido[4,3-d]pyrimidine] | 7.66
CC1c2cnc(-c3ncccn3)nc2CCN1c1cc(OCC2CCOC2)cc(F)n1 (centres unmarked) [Example 154, 6-[6-fluoro-4-(tetrahydrofuran-3-ylmethoxy)-2-pyridyl]-5-methyl-2-pyrimidin-2-yl-7,8-dihydro-5H-pyrido[4,3-d]pyrimidine] | 8.15

Structure (SMILES) | pIC50
CC1c2cnc(-c3ncccn3)nc2CCN1c1cc(OCC2CN(S(C)(=O)=O)C2)cc(F)n1 (centres unmarked) [Example 159, 6-[6-fluoro-4-[(1-methylsulfonylazetidin-3-yl)methoxy]-2-pyridyl]-5-methyl-2-pyrimidin-2-yl-7,8-dihydro-5H-pyrido[4,3-d]pyrimidine] | 7.25
CC(=O)N1CC(COc2cc(F)nc(N3CCc4nc(-c5ncccn5)ncc4C3C)c2)C1 (centres unmarked) [Example 160, 1-[3-[[2-fluoro-6-(5-methyl-2-pyrimidin-2-yl-7,8-dihydro-5H-pyrido[4,3-d]pyrimidin-6-yl)-4-pyridyl]oxymethyl]azetidin-1-yl]ethanone] | 6.71
COc1cc(C)nc(N2CCc3nc(-c4ncccn4)ncc3C2C)c1 (centres unmarked) [Example 161, 6-(4-methoxy-6-methyl-2-pyridyl)-5-methyl-2-pyrimidin-2-yl-7,8-dihydro-5H-pyrido[4,3-d]pyrimidine] | 7.02
CC1c2cnc(-c3ncccn3)nc2CCN1c1cc(OCCCOCC(=O)O)cc(F)n1 (centres unmarked) [Example 162, 2-[3-[[2-fluoro-6-(5-methyl-2-pyrimidin-2-yl-7,8-dihydro-5H-pyrido[4,3-d]pyrimidin-6-yl)-4-pyridyl]oxy]propoxy]acetic acid] | 5.75
CC1c2cnc(-c3ncccn3)nc2CCN1c1cc(OCCCOCC(N)=O)cc(F)n1 (centres unmarked) [Example 163, 2-[3-[[2-fluoro-6-(5-methyl-2-pyrimidin-2-yl-7,8-dihydro-5H-pyrido[4,3-d]pyrimidin-6-yl)-4-pyridyl]oxy]propoxy]acetamide] | 7.46
CC1c2cnc(-c3ncccn3)nc2CCN1c1cc(OCC2CCCO2)cc(F)n1 (centres unmarked) [Example 166, 6-[6-fluoro-4-(tetrahydrofuran-2-ylmethoxy)-2-pyridyl]-5-methyl-2-pyrimidin-2-yl-7,8-dihydro-5H-pyrido[4,3-d]pyrimidine] | 7.72
COC(=O)CCCCCCCOc1cc(F)nc(N2CCc3nc(-c4ncccn4)ncc3C2C)c1 (centres unmarked) [Example 167, methyl 8-[[2-fluoro-6-(5-methyl-2-pyrimidin-2-yl-7,8-dihydro-5H-pyrido[4,3-d]pyrimidin-6-yl)-4-pyridyl]oxy]octanoate] | 7.59
CC1c2cnc(-c3ncccn3)nc2CCN1c1cc(OCCCCCCCC(=O)O)cc(F)n1 (centres unmarked) [Example 168, 8-[[2-fluoro-6-(5-methyl-2-pyrimidin-2-yl-7,8-dihydro-5H-pyrido[4,3-d]pyrimidin-6-yl)-4-pyridyl]oxy]octanoic acid] | 7.68
CC1c2cnc(-c3ncccn3)nc2CCN1c1cc(OCCCCCCCC(N)=O)cc(F)n1 (centres unmarked) [Example 169, 8-[[2-fluoro-6-(5-methyl-2-pyrimidin-2-yl-7,8-dihydro-5H-pyrido[4,3-d]pyrimidin-6-yl)-4-pyridyl]oxy]octanamide] | 7.74
CC1c2cnc(-c3ccccn3)nc2CCN1c1cc(OCCCCCC(=O)O)cc(F)n1 (centres unmarked) [Example 170, 6-[[2-fluoro-6-[5-methyl-2-(2-pyridyl)-7,8-dihydro-5H-pyrido[4,3-d]pyrimidin-6-yl]-4-pyridyl]oxy]hexanoic acid] | 7.80
CC1c2cnc(-c3ccccn3)nc2CCN1c1cc(OCCCCCC(N)=O)cc(F)n1 (centres unmarked) [Example 171, 6-[[2-fluoro-6-[5-methyl-2-(2-pyridyl)-7,8-dihydro-5H-pyrido[4,3-d]pyrimidin-6-yl]-4-pyridyl]oxy]hexanamide] | 7.74
CC1c2cnc(-c3ncccn3)nc2CCN1c1cc(OC2CCOCC2)cc(F)n1 (centres unmarked) [Example 172, 6-(6-fluoro-4-tetrahydropyran-4-yloxy-2-pyridyl)-5-methyl-2-pyrimidin-2-yl-7,8-dihydro-5H-pyrido[4,3-d]pyrimidine] | 7.25
CC1c2cnc(-c3ncccn3)nc2CCN1c1cc(F)cc(OC2CCOCC2)n1 (centres unmarked) [Example 173, 6-(4-fluoro-6-tetrahydropyran-4-yloxy-2-pyridyl)-5-methyl-2-pyrimidin-2-yl-7,8-dihydro-5H-pyrido[4,3-d]pyrimidine] | 6.88
CC1c2cnc(-c3ncccn3)nc2CCN1c1cc(OCC(N)=O)cc(F)n1 (centres unmarked) [Example 174, 2-[[2-fluoro-6-(5-methyl-2-pyrimidin-2-yl-7,8-dihydro-5H-pyrido[4,3-d]pyrimidin-6-yl)-4-pyridyl]oxy]acetamide] | 6.18
COC(=O)c1cc(F)cc(N2CCc3nc(-c4ncccn4)ncc3C2C)c1 (centres unmarked) [Example 175, methyl 3-fluoro-5-(5-methyl-2-pyrimidin-2-yl-7,8-dihydro-5H-pyrido[4,3-d]pyrimidin-6-yl)benzoate] | 5.83
CC1c2cnc(-c3ncccn3)nc2CCN1c1cc(F)cc(C(=O)O)c1 (centres unmarked) [Example 176, 3-fluoro-5-(5-methyl-2-pyrimidin-2-yl-7,8-dihydro-5H-pyrido[4,3-d]pyrimidin-6-yl)benzoic acid] | 4.56
COCCCNC(=O)c1cc(F)cc(N2CCc3nc(-c4ncccn4)ncc3C2C)c1 (centres unmarked) [Example 177, 3-fluoro-N-(3-methoxypropyl)-5-(5-methyl-2-pyrimidin-2-yl-7,8-dihydro-5H-pyrido[4,3-d]pyrimidin-6-yl)benzamide] | 6.54
